Patent publication US6410723B1, “VDUP1 promoter and methods of use thereof” (priority 2000, dated 2002)

Legend:
VDUP1 gene = details: human HL-60 cells; cited from earlier work
thioredoxin (TRX) = details: HL-60 cells treated with vitamin D3; cited from earlier work
VDUP1 promoter = experiment: Secreted alkaline phosphatase reporter assay, COS cells transiently transfected with VDUP1 promoter constructs, treated with Vitamin D3; format: cell-based, monkey; details: 200 nM Vitamin D3, all constructs tested, AP reporter
Method: (§1) FIG. 5 is a graph showing secreted alkaline phosphatase (SEAP) activity upon transient transfection of COS cells of various VDUP1 promoter constructs operably linked to an alkaline phosphatase encoding nucleotide sequence, treated or untreated with 200 nM Vitamin D3.
(§2) Four deletion constructs were generated corresponding to 5′ end lengths of 1448bp (SEQ ID NO:1), 1002bp (SEQ ID NO:4), 597bp (SEQ ID NO:3), and 452bp (SEQ ID NO:2) as shown in FIG. 1. In the 452bp (SEQ ID NO:2) construct, the two Sp1 elements are deleted. Each fragment was generated by PCR from the 3.0 kb EcoRI-BamHI subclone, and introduced upstream of the secreted alkaline phosphatase (AP) reporter nucleic acid sequence. Representative clones of each were verified by DNA sequencing. The VDUP1 constructs were then transfected into COS cells and screened for expression in comparison to an SV40 immediate early promoter driven AP construct.

[1] = tested on: SV40 immediate early promoter; experiment: Secreted alkaline phosphatase reporter assay, COS cells transfected with SV40 promoter control construct, treated with vitamin D3; format: cell-based; details: addition of vitamin D3 (200 nM), AP reporter
Method: as §1, §2

| SMILES | induction of VDUP1 (VDUP1 gene) | expression of TRX (thioredoxin (TRX)) | enhancement of VDUP1 expression (VDUP1 promoter) | induction of SV40 control [1] |
| --- | --- | --- | --- | --- |
| C[C@@H]1C[C@@H]([C@H](O)CC2CC(=O)NC(=O)C2)C(=O)[C@@H](C)C1 [cyclohexamide] | several fold | – | – | – |
| C=C1/C(=C\C=C2/CCC[C@]3(C)[C@@H]([C@H](C)CCCC(C)(C)O)CC[C@@H]23)C[C@@H](O)C[C@@H]1O [Vitamin D3, 1,25-dihydroxyvitamin D3] | strongly induced | significant decrease | 25% | not induced |
